Test results taken from patent US20240016781A1, “TREATMENT OF KRAS MUTANT CANCERS” (MEI Pharma, Inc., priority 2020, published 2024).

How the values were obtained:
[1] = test system: HCT-116 (CRC, KRAS G13D); test: Murine xenograft tumor growth inhibition, HCT-116; format: in vivo, SCID mice; conditions: HCT-116 xenograft; orally 50, 100, or 200 mg/kg OD for 11-14 days; all doses
Procedure: Voruciclib is an oral inhibitor of CDKs 9, 4, 6, and 1 currently being tested in Phase 1B clinical trials for B-cell malignancies and acute myeloid leukemia. Voruciclib inhibition of CDK9 leads to decreased expression of transcriptional targets of RNA Pol II, such as Mcl1 and MYC. To test whether Voruciclib could be effective in cancers driven by dysregulated KRAS-MYC signaling, ˜20 cancer cell lines with KRAS mutations (G12A, G12C, G12D, G12S, G12V, G13C, G13D, Q61H) were treated in preclinical studies with Voruciclib. MTS and Cell Titer Glo assays were used to monitor growth in vitro. […] To investigate MYC protein stability, MIA PACA-2 (G12C) cells were treated with 4 μM Voruciclib for 5-240 min, followed by SDS-PAGE and Western Blotting analysis with α-MYC and α-pSer62-MYC antibodies. […] A 60% decrease in pSer62 was observed after 5 min that reached 80% by 60 min. […] The ability of Voruciclib to inhibit tumor growth in vivo was also tested in murine xenograft models. KRAS mutant human cancer cells HCT-116 (CRC, KRAS G13D), SW-480 (CRC, KRAS G12V), and H-460 (NSCLC, KRAS Q61H) were injected subcutaneously into SCID mice. Once tumors reached 5-10 mm in diameter, Voruciclib or vehicle were administered orally at 50, 100, or 200 mg/kg OD for 11-14 days. Tumors were measured every 2-3 days, and growth inhibition relative to control was calculated. […]

[2] = test system: MIA Paca-2 cells; test: Voruciclib-sensitive phosphoproteome (TMT, LC-MS/MS); format: cell-based; conditions: voruciclib 4 μM over time
Procedure: Cells were treated with voruciclib (4 μM) over time. (FIG. 31A) Summary of peptide quantification after TMT labelling and analysis by LC-MS/MS. (FIG. 31B) Volcano plots of phosphosites (log 2 fold change vs −log 10 p-value).
To define the CDK9-dependent phosphoproteome, cells are treated for a short time period with VOR followed by harvesting of the cells, IMAC enrichment, 16-plex isobaric tagging, and analysis by LC/MS/MS. A time course or different doses or drug combinations for the conditions can be performed. This experiment provides insight into novel CDK9 substrates and inroads into possible therapeutic areas for CDK9 inhibition by VOR.

CN1CC[C@@H](c2c(O)cc(O)c3c(=O)cc(-c4ccc(C(F)(F)F)cc4Cl)oc23)[C@@H]1CO [Voruciclib, (+)-trans-2-(2-Chloro-4-trifluoromethylphenyl)-5,7-dihydroxy-8-(2-hydroxymethyl-1-methylpyrrolidin-3-yl)-chromen-4-one]
tumor growth inhibition relative to control [1]: > 50% | phosphoproteome change [2]: rapid downregulation of phosphoproteins controlling transcription of MYC
